Data from US9446130B2, “BTK inhibitors” (MERCK SHARP & DOHME CORP., priority 2013, dated 2016).

Legend:
[1] = biological target: T1, BTK enzyme (hBTK, full-length recombinant) (Homo sapiens (Human), UniProt Q06187); assay: Btk enzyme activity assay, Method A: IMAP-FP; format: biochemical; settings: 5 μM ATP, 60 minute compound & enzyme incubation
Description: Inhibition of kinase activity can be measured using the Immobilized Metal Assay for Phosphochemicals (IMAP) assay. IMAP is a homogeneous fluorescence polarization (FP) assay based on affinity capture of phosphorylated peptide substrates. IMAP uses fluorescein-labeled peptide substrates that, upon phosphorylation by a protein kinase, bind to so-called IMAP nanoparticles, which are derivatized with trivalent metal complexes. Binding causes a change in the rate of the molecular motion of the peptide, and results in an increase in the FP value observed for the fluorescein label attached to the substrate peptide (Gaudet et al. A homogeneous fluorescence polarization assay adaptable for a range of protein serine/threonine and tyrosine kinases. J. Biomol. Screen (2003) 8, 164-175).
BTK enzymatic activity was determined in an IMAP-FP assay (Immobilized Metal ion Affinity-based fluorescence Polarization; Molecular Devices). […] Plates were read on Packard microplate reader after 60 minutes binding equilibration using Fluorescence Polarization protocol. Specifically, fluorescence at 535 nm is measured using emission filters oriented both parallel and perpendicular to the polarized excitation filter. This allows detection of changes in Fluorescence Polarization due to binding of the phosphorylated substrate peptide to the beads. […]

[2] = biological target: T1, BTK enzyme (hBTK, full-length recombinant); assay: Btk enzyme activity assay, Method B: LANCE TR-FRET; format: biochemical; settings: 25 μM ATP, 60 minute compound & enzyme incubation
Description: Also BTK enzymatic activity was determined with the LANCE (Lanthanide Chelate Excite) TR-FRET (Time-resolved fluorescence resonance energy transfer) assay. […] The final reaction in each well of 10 μL consists of 100 pM hBTK, 2 μM biotin-A5-peptide, and 25 μM ATP. Phosphorylation reactions were allowed to proceed for 120 minutes. […] After 60 minutes incubation with detection reagents, reaction plates were read on a PerkinElmer EnVision plate reader using standard TR-FRET protocol. Briefly, excitation of donor molecules (Eu-chelate:anti-phospho-antibody) with a laser light source at 337 nm produces energy that can be transferred to Dylight-650 acceptor molecules if this donor:acceptor pair is within close proximity. Fluorescence intensity at both 665 nm (acceptor) and 615 nm (donor) are measured and a TR-FRET ratio calculated for each well (acceptor intensity/donor intensity). IC50 values were determined by 4 parameter robust fit of TR-FRET ratio values vs. (Log10) compound concentrations. BTK enzymatic activity was determined with the LANCE (Lanthanide Chelate Excite) TR-FRET (Time-resolved fluorescence resonance energy transfer) assay. […] The final reaction in each well of 10 μL consists of 50 pM hBTK, 2 μM biotin-A5-peptide, and 25 μM ATP. Phosphorylation reactions were allowed to proceed for 120 minutes. […] After 60 minutes incubation with detection reagents, reaction plates were read on a PerkinElmer EnVision plate reader using standard TR-FRET protocol. Briefly, excitation of donor molecules (Eu-chelate:anti-phospho-antibody) with a laser light source at 337 nm produces energy that can be transferred to Dylight-650 acceptor molecules if this donor:acceptor pair is within close proximity. Fluorescence intensity at both 665 nm (acceptor) and 615 nm (donor) are measured and a TR-FRET ratio calculated for each well (acceptor intensity/donor intensity). IC50 values were determined by 4 parameter robust fit of TR-FRET ratio values vs. (Log10) compound concentrations.

T1 sequence (Q06187 whole entry): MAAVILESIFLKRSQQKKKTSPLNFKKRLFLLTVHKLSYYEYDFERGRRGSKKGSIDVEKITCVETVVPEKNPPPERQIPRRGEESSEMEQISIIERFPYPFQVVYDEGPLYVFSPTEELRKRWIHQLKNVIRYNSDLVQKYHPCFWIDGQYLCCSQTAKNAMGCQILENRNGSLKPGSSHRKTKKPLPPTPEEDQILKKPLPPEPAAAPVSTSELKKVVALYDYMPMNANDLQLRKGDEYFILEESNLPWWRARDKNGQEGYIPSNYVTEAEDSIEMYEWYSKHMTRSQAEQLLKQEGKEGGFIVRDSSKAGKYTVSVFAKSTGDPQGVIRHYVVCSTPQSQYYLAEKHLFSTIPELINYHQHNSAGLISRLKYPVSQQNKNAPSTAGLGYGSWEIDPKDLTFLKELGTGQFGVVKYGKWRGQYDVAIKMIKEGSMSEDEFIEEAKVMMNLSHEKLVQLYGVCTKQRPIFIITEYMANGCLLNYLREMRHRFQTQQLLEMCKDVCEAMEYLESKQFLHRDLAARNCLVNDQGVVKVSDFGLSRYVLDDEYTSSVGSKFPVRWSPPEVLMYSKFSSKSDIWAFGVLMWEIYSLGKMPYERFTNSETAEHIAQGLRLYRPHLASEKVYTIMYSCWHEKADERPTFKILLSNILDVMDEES

Row | SMILES | IC50 [1] | IC50 [2]
1 | Cn1ncc2c1CCCC2(O)c1nc(-c2ccc(C(=O)Nc3cc(C(F)(F)F)ccn3)cc2)c2c(N)nccn12 (centres unmarked) [Example 1, 4-(8-amino-3-(4-hydroxy-1-methyl-4,5,6,7-tetrahydro-1H-indazol-4-yl)imidazo[1,5-a]pyrazin-1-yl)-N-(4-(trifluoromethyl)pyridin-2-yl)benzamide] | 7.2 nM | –
2 | CCn1cc2c(n1)CCC[C@@H]2n1nc(-c2ccc(C(=O)Nc3cc(C(F)(F)F)ccn3)cc2)c2c(N)ncnc21 [Example 14, (S)-4-(4-amino-1-(2-ethyl-4,5,6,7-tetrahydro-2H-indazol-4-yl)-1H-pyrazolo[3,4-d]pyrimidin-3-yl)-N-(4-(trifluoromethyl)pyridin-2-yl)benzamide] | – | 54 nM
3 | CCn1ncc2c1CCC[C@H]2n1nc(-c2ccc(C(=O)Nc3cc(C(F)(F)F)ccn3)cc2)c2c(N)ncnc21 [Example 11, (R)-4-(4-amino-1-(1-ethyl-4,5,6,7-tetrahydro-1H-indazol-4-yl)-1H-pyrazolo[3,4-d]pyrimidin-3-yl)-N-(4-(trifluoromethyl)pyridin-2-yl)benzamide] | – | 3.2 nM
4 | CCn1ncc2c1CCCC2(O)c1nc(-c2ccc(C(=O)Nc3cc(C(F)(F)F)ccn3)cc2)c2c(N)nccn12 (centres unmarked) [Example 4, 4-(8-amino-3-(1-ethyl-4-hydroxy-4,5,6,7-tetrahydro-1H-indazol-4-yl)imidazo[1,5-a]pyrazin-1-yl)-N-(4-(trifluoromethyl)pyridin-2-yl)benzamide] | 12 nM | –
5 | Cn1ncc2c1CCC[C@]2(O)c1nc(-c2ccc(C(=O)Nc3cc(C(F)(F)F)ccn3)cc2)c2c(N)nccn12 [Example 3, (R)-4-(8-amino-3-(4-hydroxy-1-methyl-4,5,6,7-tetrahydro-1H-indazol-4-yl)imidazo[1,5-a]pyrazin-1-yl)-N-(4-(trifluoromethyl)pyridin-2-yl)benzamide] | – | 2 nM
